Earlier results on 22 compounds are cited in PMC12525602, “Identification of Selective α-Glucosidase Inhibitors via Virtual Screening with Machine Learning” (Molecules, 2025).

The test system of the data set is α-glucosidase. The conditions noted are these: cited from earlier work; for activity (label in modeling dataset): 300-compound dataset of reported inhibitors and ineffective compounds, Table S4; for activity: activity label of the modeling dataset (Table S5), α-glucosidase, 1 = active, 0 = inactive.

On to `C[C@@H]1O[C@@H](Oc2cc(O)c3c(=O)c(O[C@@H]4O[C@@H](C)[C@H](O)[C@@H](O)[C@H]4O)c(-c4ccc(O)cc4)oc3c2)[C@H](O)[C@H](O)[C@H]1O` [compound 0, C[C@H]1[C@H](O)[C@@H](O)[C@@H](O)[C@H](OC2=CC(O)=C3C(OC(C4=CC=C(O)C=C4)=C(O[C@H]5[C@H](O)[C@H](O)[C@@H](O)[C@H](C)O5)C3=O)=C2)O1], for which the “activity (label in modeling dataset)” value is 0 and the activity is recorded as 0.

As for `COc1cc(-c2oc3cc(O)cc(O)c3c(=O)c2O[C@@H]2O[C@H](CO)[C@@H](O)[C@H](O)[C@H]2O)ccc1O` [compound 1, COC1=C(O)C=CC(C2=C(O[C@H]3[C@H](O)[C@@H](O)[C@H](O)[C@@H](CO)O3)C(C4=C(O)C=C(O)C=C4O2)=O)=C1], the “activity (label in modeling dataset)” value is given as 0 and the activity is listed as 0.

As to `COc1cc(-c2oc3cc(O)cc(O)c3c(=O)c2O[C@@H]2O[C@H](CO[C@@H]3O[C@@H](C)[C@H](O)[C@@H](O)[C@H]3O)[C@@H](O)[C@H](O)[C@H]2O)ccc1O` [compound 2, C[C@H]1[C@H](O)[C@@H](O)[C@@H](O)[C@H](OC[C@@H]2[C@@H](O)[C@H](O)[C@@H](O)[C@H](OC3=C(C4=CC(OC)=C(O)C=C4)OC5=CC(O)=CC(O)=C5C3=O)O2)O1], the “activity (label in modeling dataset)” value is 0 and the activity is reported as 0.

Consider `COc1ccc(S(=O)(=O)NNC(=O)c2cc3cc(F)ccc3[nH]2)cc1OC` [compound 3, FC1=CC=C(NC(C(NNS(=O)(C2=CC(OC)=C(OC)C=C2)=O)=O)=C3)C3=C1], for which the “activity (label in modeling dataset)” value is on record as 0 and the activity is reported as 0.

For `Cc1ccc(Nc2nnc(-c3cc4cc(C#N)ccc4[nH]3)s2)cc1` [compound 4, CC(C=C1)=CC=C1NC(S2)=NN=C2C3=CC4=CC(C#N)=CC=C4N3], the “activity (label in modeling dataset)” value is 0 and the activity was 0.

As to `O=C(O)c1ccc(-c2nc3ccc(C(=O)c4ccccc4)cc3[nH]2)cc1` [compound 5], the activity is 0.

Turning to `Cc1ccc(-c2cc(-c3cccnc3)c(C#N)c(N)c2C#N)cc1` [compound 6], the activity is recorded as 0.

Regarding `N#Cc1c(-c2cccc(Cl)c2)cc(-c2ccco2)c(C#N)c1N` [compound 7], the activity was 0.

On to `O=C(c1ccccc1)c1ccc2nc(-c3ccc(Br)cc3)[nH]c2c1` [compound 8], for which the activity is on record as 0.

Consider `O=C(c1ccccc1)c1ccc2nc(-c3ccc(O)cc3O)[nH]c2c1` [compound 9], for which the activity was 0.

On to `N#Cc1c(-c2ccc(-c3ccccc3)cc2)cc(-c2ccc([N+](=O)[O-])cc2)c(C#N)c1N` [compound 10], for which the activity is 0.

Turning to `N#Cc1ccc2[nH]c(-c3nnc(Nc4ccccc4Br)s3)cc2c1` [compound 11], the activity is recorded as 0.

For `N#Cc1c(-c2ccc(Cl)cc2)cc(-c2cccc(Cl)c2)c(C#N)c1N` [compound 12], the activity is listed as 0.

With `CC1CCCN(c2ccc(/C=N/Nc3nc(-c4ccc(Cl)cc4)cs3)cc2)C1` (stereo not drawn) [compound 13], the activity was 0.

For the compound `Cc1ccccc1Nc1nnc(-c2cc3cc(C#N)ccc3[nH]2)s1` [compound 14], the activity is recorded as 0.

As for `CC1CCN(c2ccc(/C=N/Nc3nc(-c4ccc(Br)cc4)cs3)cc2)CC1` [compound 15], the activity is 0.

Turning to `Clc1cccc(Cn2cc(CSc3nnc(COc4cccc5cccnc45)o3)nn2)c1` [compound 16], the activity is 0.

`COc1ccc(-n2cc(CSc3nnc(COc4cccc5cccnc45)o3)nn2)cc1` [compound 17]: the activity was 0.

With `N#Cc1c(-c2ccncc2)cc(-c2ccc([N+](=O)[O-])cc2)c(C#N)c1N` [compound 18], the activity is 0.

In the case of `N#Cc1c(-c2cccnc2)cc(-c2ccco2)c(C#N)c1N` [compound 19], the activity was 0.

With `Cc1ccc(-c2cc(-c3cccc([N+](=O)[O-])c3)c(C#N)c(N)c2C#N)cc1` [compound 20], the activity was 0.

Consider `N#Cc1c(-c2ccc(Cl)cc2)cc(-c2ccccn2)c(C#N)c1N` [compound 21], for which the activity is given as 0.
